Like-named read-outs stand apart in the source and are kept apart here.
Columns and labels:
Type in all cases: in vivo
[1] = system: Polygonum convolvulus (POLCO); experiment: Post-emergence herbicidal action against POLCO
How it was run: (§1)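 Greenhouse plants sprayed at the one-leaf stage, 2–3 weeks after sowing, with WP or EC formulations plus 0.5% additive at 600 l/ha water. Activity rated visually after about 3 weeks versus untreated controls (100% = dead, 0% = like control), at 320 g/ha or lower.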

[2] = system: Alopecurus myosuroides (ALOMY); experiment: Post-emergence herbicidal action against ALOMY; conditions: visual rating about 3 weeks after treatment vs untreated controls (100% = plants have died, 0% = like control plants)
How it was run: as §1

Setaria viridis (SETVI) = experiment: Post-emergence herbicidal action against SETVI
How it was run: as §1

[3] = system: Echinochloa crus-galli (ECHCG); experiment: Post-emergence herbicidal action against ECHCG
How it was run: as §1

Zea mays (ZEAMX) = conditions: for Post-emergence action against ZEAMX in % (crop plant compatibility): 20 g/ha, effect in comparison to untreated controls
How it was run: (§2)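 Effects were read visually as % versus untreated controls (0% = no effect, 100% = death) about 3 weeks post-treatment. Application was a post-emergence spray at the one-leaf stage of WP/EC formulations with 0.5% additive at 600 l/ha. Different dosages are denoted a, b and c.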

Oryza sativa (ORYSA) = conditions: crop plant compatibility
How it was run: as §2

Avena fatua (AVEFA) = experiment: Post-emergence herbicidal action against AVEFA; conditions: visual rating about 3 weeks after treatment
How it was run: as §1

[4] = system: Digitaria sanguinalis (DIGSA); experiment: Post-emergence herbicidal action against DIGSA; conditions: visual rating about 3 weeks after treatment
Experimental: Seeds of monocotyledonous and dicotyledonous weeds and crop plants are placed in sandy loam in plastic or organic planting pots, covered with soil and cultivated in a greenhouse under controlled growth conditions. 2 to 3 weeks after sowing, the test plants are treated at the one-leaf stage. The compounds of the invention, formulated in the form of wettable powders (WP) or as emulsion concentrates (EC), are then sprayed onto the green parts of the plants as aqueous suspension or emulsion with addition of 0.5% additive at a water application rate of 600 l/ha (converted). After the test plants have been kept in the greenhouse under optimum growth conditions for about 3 weeks, the activity of the preparations is rated visually in comparison to untreated controls. For example, 100% activity=the plants have died, 0% activity=like control plants.
Tables B1 to B13 below show the effects of selected compounds of the general formula (I) according to Table 1 on various harmful plants and at an application rate corresponding to 320 g/ha or lower, which were obtained by the experimental procedure mentioned above. The appendices “a”, “b” and “c” give differentiation by dosage used with otherwise the same harmful plants tested.

Lolium rigidum (LOLRI) = experiment: Post-emergence herbicidal action against LOLRI
How it was run: as §1

Viola tricolor (VIOTR) = experiment: Post-emergence herbicidal action against VIOTR
How it was run: as §1

[5] = system: Pharbitis purpurea (PHBPU); experiment: Post-emergence herbicidal action against PHBPU
How it was run: as §1

[6] = system: Matricaria inodora (MATIN); experiment: Post-emergence herbicidal action against MATIN
How it was run: as §1

[7] = system: Verconica persica (VERPE); experiment: Post-emergence herbicidal action against VERPE
How it was run: as §1

[8] = system: Amaranthus retroflexus (AMARE); experiment: Post-emergence herbicidal action against AMARE
How it was run: as §1

[9] = 20 g/ha, effect vs untreated controls

## COC(=O)[C@@H](C)Oc1nn(-c2ccccn2)c(-c2ccc(F)nc2)c1Br [Example I-252]
[1]; dosage 320 g/ha
  Post-emergence action against POLCO in %: 80%
[2]; 80 g/ha
  Post-emergence action against ALOMY in %: 80%
[2]; 320 g/ha
  Post-emergence action against ALOMY in %: 90%
Setaria viridis (SETVI); dosage 80 g/ha
  Post-emergence action against SETVI in %: 80%
Setaria viridis (SETVI); dosage 320 g/ha
  Post-emergence action against SETVI in %: 80%
[3]; dosage 80 g/ha
  Post-emergence action against ECHCG in %: 80%
[3]; dosage 320 g/ha
  Post-emergence action against ECHCG in %: 90%
Zea mays (ZEAMX)
  Post-emergence action against ZEAMX in % (crop plant compatibility): 10%
Oryza sativa (ORYSA); [9]
  Post-emergence action against ORYSA in %: 10%
Avena fatua (AVEFA); 80 g/ha
  Post-emergence action against AVEFA in %: 80%
Avena fatua (AVEFA); 320 g/ha
  Post-emergence action against AVEFA in %: 80%
[4]; 80 g/ha
  Post-emergence action against DIGSA in %: 90%
[4]; 320 g/ha
  Post-emergence action against DIGSA in %: 90%
Lolium rigidum (LOLRI); dosage 80 g/ha
  Post-emergence action against LOLRI in %: 80%
Lolium rigidum (LOLRI); dosage 320 g/ha
  Post-emergence action against LOLRI in %: 80%
Viola tricolor (VIOTR); 320 g/ha
  Post-emergence action against VIOTR in %: 80%
[5]; dosage 320 g/ha
  Post-emergence action against PHBPU in %: 90%
[6]; dosage 320 g/ha
  Post-emergence action against MATIN in %: 80%
[7]; 320 g/ha, VERPE
  Post-emergence action against VERPE in %: 80%
[7]; dosage 80 g/ha
  Post-emergence action against VERPE in %: 80%

## CCOC(=O)COc1nn(-c2ncccc2F)c(-c2cncc(F)c2)c1C(F)(F)F [Example I-141]
[1]; dosage 80 g/ha
  Post-emergence action against POLCO in %: 80%
[1]; dosage 320 g/ha
  Post-emergence action against POLCO in %: 80%
[2]; 320 g/ha
  Post-emergence action against ALOMY in %: 90%
Setaria viridis (SETVI); dosage 80 g/ha
  Post-emergence action against SETVI in %: 90%
Setaria viridis (SETVI); dosage 320 g/ha
  Post-emergence action against SETVI in %: 90%
[3]; dosage 80 g/ha
  Post-emergence action against ECHCG in %: 80%
[3]; dosage 320 g/ha
  Post-emergence action against ECHCG in %: 80%
Oryza sativa (ORYSA); [9]
  Post-emergence action against ORYSA in %: 10%
Avena fatua (AVEFA); 320 g/ha
  Post-emergence action against AVEFA in %: 80%
[4]; 80 g/ha
  Post-emergence action against DIGSA in %: 90%
[4]; 320 g/ha
  Post-emergence action against DIGSA in %: 90%
Lolium rigidum (LOLRI); dosage 320 g/ha
  Post-emergence action against LOLRI in %: 90%
Viola tricolor (VIOTR); 80 g/ha
  Post-emergence action against VIOTR in %: 80%
Viola tricolor (VIOTR); 320 g/ha
  Post-emergence action against VIOTR in %: 80%
[5]; dosage 80 g/ha
  Post-emergence action against PHBPU in %: 80%
[5]; dosage 320 g/ha
  Post-emergence action against PHBPU in %: 90%
[6]; dosage 80 g/ha
  Post-emergence action against MATIN in %: 80%
[6]; dosage 320 g/ha
  Post-emergence action against MATIN in %: 90%
[7]; 320 g/ha, VERPE
  Post-emergence action against VERPE in %: 90%
[7]; dosage 80 g/ha
  Post-emergence action against VERPE in %: 90%
[8]; 80 g/ha, visual rating about 3 weeks after treatment vs untreated controls (100% = plants have died, 0% = like control plants)
  Post-emergence action against AMARE in %: 80%
[8]; 320 g/ha, visual rating about 3 weeks after treatment
  Post-emergence action against AMARE in %: 90%

## O=C(COc1nn(-c2ncccc2F)c(-c2ccc(F)nc2)c1C1CC1)OCC1COC1 [Example I-264]
[2]; 320 g/ha
  Post-emergence action against ALOMY in %: 90%
Setaria viridis (SETVI); dosage 80 g/ha
  Post-emergence action against SETVI in %: 90%
Setaria viridis (SETVI); dosage 320 g/ha
  Post-emergence action against SETVI in %: 90%
[3]; dosage 80 g/ha
  Post-emergence action against ECHCG in %: 90%
[3]; dosage 320 g/ha
  Post-emergence action against ECHCG in %: 90%
Zea mays (ZEAMX)
  Post-emergence action against ZEAMX in % (crop plant compatibility): 10%
Zea mays (ZEAMX); crop plant compatibility, 80 g/ha, effect vs untreated controls
  Post-emergence action against ZEAMX in %: 20%
Oryza sativa (ORYSA); [9]
  Post-emergence action against ORYSA in %: 0%
Oryza sativa (ORYSA); 80 g/ha, effect in comparison to untreated controls
  Post-emergence action against ORYSA in %: 10%
Avena fatua (AVEFA); 80 g/ha
  Post-emergence action against AVEFA in %: 80%
Avena fatua (AVEFA); 320 g/ha
  Post-emergence action against AVEFA in %: 90%
[4]; 80 g/ha
  Post-emergence action against DIGSA in %: 80%
[4]; 320 g/ha
  Post-emergence action against DIGSA in %: 80%
Lolium rigidum (LOLRI); dosage 80 g/ha
  Post-emergence action against LOLRI in %: 90%
Lolium rigidum (LOLRI); dosage 320 g/ha
  Post-emergence action against LOLRI in %: 90%
Viola tricolor (VIOTR); 80 g/ha
  Post-emergence action against VIOTR in %: 90%
Viola tricolor (VIOTR); 320 g/ha
  Post-emergence action against VIOTR in %: 90%
[5]; dosage 80 g/ha
  Post-emergence action against PHBPU in %: 80%
[5]; dosage 320 g/ha
  Post-emergence action against PHBPU in %: 80%
[6]; dosage 320 g/ha
  Post-emergence action against MATIN in %: 80%
[7]; 320 g/ha, VERPE
  Post-emergence action against VERPE in %: 90%
[7]; dosage 80 g/ha
  Post-emergence action against VERPE in %: 80%

From US20240041042A1, “1-(PYRIDYL)-5-AZINYLPYRAZOLE DERIVATIVES, AND THEIR USE FOR CONTROL OF UNDESIRED PLANT GROWTH” (Bayer Aktiengesellschaft, priority 2020, published 2024)
